We go through four compounds from patent publication US20050250799A1, “Protease inhibitors for treatment of wrinkles” (priority 2004, published 2005).

As a reminder, the pKi is the negative decadic logarithm of the Ki, by convention in mol/L.

pKi: −log10 of the molar value.

Data set [1] relates to UVB-induced wrinkle formation. The data set can be described thus: Example 6: UVB-induced skin wrinkling. The class given is in vivo, Skh-1 hairless mice. To be noted: UVB + 0.1% in 25% DMSO + 75% ethanol, 100 μl on back skin three times weekly, 10 weeks; category 0 (no wrinkle) to 4 (severe wrinkle).
The test system of data set [2] is UVB-induced vessel dilation. Briefly: Example 6: dermal blood vessel area (CD31 staining) after UVB. In kind it is in vivo, Skh-1 hairless mice. To be noted: UVB + 0.1% in 25% DMSO + 75% ethanol, 100 μl on back skin three times weekly, 10 weeks; dermis.
In another data set the test system is back skin of mice. Briefly: Example 5: skin irritation score on back skin. In kind it is in vivo, mice (FVB strain). To be noted: 0.1% in 25% DMSO + 75% ethanol, 5 μl on back skin, score 0 (no erythema) to 4. As for the experimental part: The hair of the back skin of mice (FVB strain, female, 7 weeks of age, n=3/group) was clipped by an electric clipper on day 0. 5 μl of test sample solution (˜1 cm diameter) was applied on the back skin. After 24 hours (day 1), skin irritation was measured on the basis of a scoring system (0: no erythema; 1: very slight erythema; 2: well-defined erythema; 3: moderate erythema; 4: several erythema and edema) and a second dose administered. After a second 24 hours (day 2), skin irritation was measured and a third dose administered. After a third 24 hours (day 3), skin irritation was again measured.

Another data set concerns the target T1, caspase 1 (Homo sapiens, UniProt P29466).
T1 sequence (P29466 120-297 limits assumed): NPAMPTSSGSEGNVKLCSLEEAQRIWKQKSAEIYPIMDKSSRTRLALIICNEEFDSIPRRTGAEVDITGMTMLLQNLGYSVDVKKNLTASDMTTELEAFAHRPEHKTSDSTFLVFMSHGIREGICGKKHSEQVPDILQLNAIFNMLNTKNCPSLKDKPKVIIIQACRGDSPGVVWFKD
T1 sequence (P29466 317-404 limits assumed): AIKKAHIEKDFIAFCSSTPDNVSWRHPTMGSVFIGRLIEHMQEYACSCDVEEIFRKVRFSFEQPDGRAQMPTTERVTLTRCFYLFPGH
The following applies: cited from earlier work.

The next data set has as its target T2, caspase 4 (Homo sapiens, UniProt P49662).
T2 sequence (P49662 81-270 limits assumed): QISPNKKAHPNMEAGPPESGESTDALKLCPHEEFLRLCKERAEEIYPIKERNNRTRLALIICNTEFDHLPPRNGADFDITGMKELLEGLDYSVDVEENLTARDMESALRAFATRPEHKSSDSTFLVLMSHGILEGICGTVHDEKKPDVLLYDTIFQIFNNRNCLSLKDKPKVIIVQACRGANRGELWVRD
T2 sequence (P49662 290-377 limits assumed): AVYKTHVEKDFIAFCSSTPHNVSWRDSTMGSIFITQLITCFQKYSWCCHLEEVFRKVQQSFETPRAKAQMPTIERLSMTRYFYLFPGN
The following applies: cited from earlier work.

The target of another data set is T3, caspase 3 (Homo sapiens, UniProt P42574).
T3 sequence (P42574 29-175 limits assumed): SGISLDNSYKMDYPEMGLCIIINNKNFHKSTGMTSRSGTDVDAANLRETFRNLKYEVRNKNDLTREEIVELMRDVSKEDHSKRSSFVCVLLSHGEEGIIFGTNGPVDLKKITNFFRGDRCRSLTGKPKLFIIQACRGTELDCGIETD
T3 sequence (P42574 176-277 limits assumed): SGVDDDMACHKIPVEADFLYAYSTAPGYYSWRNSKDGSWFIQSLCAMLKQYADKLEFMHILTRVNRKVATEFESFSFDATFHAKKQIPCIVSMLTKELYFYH
The following applies: cited from earlier work.

For another data set, the target named is T4, caspase 7 (Homo sapiens, UniProt P55210).
T4 sequence (P55210 24-198 limits assumed): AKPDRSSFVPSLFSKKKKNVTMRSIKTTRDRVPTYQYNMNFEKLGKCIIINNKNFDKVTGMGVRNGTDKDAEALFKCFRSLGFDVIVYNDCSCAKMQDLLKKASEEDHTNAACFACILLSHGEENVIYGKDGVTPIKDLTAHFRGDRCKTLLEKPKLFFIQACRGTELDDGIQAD
T4 sequence (P55210 207-303 limits assumed): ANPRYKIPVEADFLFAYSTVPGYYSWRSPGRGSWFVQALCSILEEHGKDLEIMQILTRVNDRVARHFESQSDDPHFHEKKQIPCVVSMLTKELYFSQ
To be noted: cited from earlier work.

With `NC[C@H]1CC[C@H](C(=O)O)CC1` [Tranexamic acid], the “Wrinkle category (mean)” value in data set [1] came out at 2.00. For the same compound, the “Percent of vessel area (mean)” value in data set [2] is on record as 8.7%. Besides, the skin irritation score with back skin of mice (day 0), with back skin of mice (day 1), with back skin of mice (day 2) and in the data set with back skin of mice (day 3) was 0 each time.
On to Ac-YVAD-CHO, for which the negative-log Ki (pKi) at caspase 1 is roughly 8.00; on caspase 4 it was roughly 8.00; on caspase 3 it was no more than 4.30; on caspase 7 it was no more than 4.30.
As for `CC(C)C[C@H](CC(=O)NO)C(=O)N[C@@H](Cc1ccc2ccccc2c1)C(=O)N[C@@H](C)C(N)=O` [TAPI-0], the “Wrinkle category (mean)” value in data set [1] came out at 1.00. For the same compound, the “Percent of vessel area (mean)” value in data set [2] is given as 8.9%.
On to zVAD-FMK, for which the inhibition result on caspase 1, on caspase 4, at caspase 3 and on caspase 7 was “inhibits” in each case. For the same compound, the “Wrinkle category (mean)” value in data set [1] is on record as 1.67. The “Percent of vessel area (mean)” value in data set [2] stood at 8.8%.
